“And” between values parts separate entries of the source, which are not always exact repeats. Equal entries are not always repeated. Where two headings read alike, the source gives them in different places.
Key:
[1] = Lipophilicity (logP) by RP-TLC; conditions: RP-18 F254S TLC plates
Description: Lipophilicity is one of the most important physicochemical properties in pharmaceutical research. It can be considered a key determinant of the pharmacokinetic properties of a drug. It is commonly measured by the partition coefficient between water and n-octanol, being expressed as logP [14]. […] Knowledge of the partition coefficient is valuable: it is frequently used in structure–activity relationship (SAR) and quantitative structure–activity relationship (QSAR) studies. The experimental lipophilicity of the synthesized compounds, viz. benzylideneflavanones, benzylidenechromanones and spiropyrazolines, was determined using RP-TLC. […] It is important to examine the relationship between structure of the compound and its lipophilicity and cytotoxicity.
The RP-TLC experiments were performed on TLC plates (5 × 10 cm) RP-18 F254S (Merck, Darmstadt, Germany). The synthesized compounds were dissolved in N,N-dimethylformamide DMF (2 mg/mL). […] A DMF-water solvent system was used as mobile phase. […] All experiments were performed at room temperature. The logP parameter was calculated using the equation from the calibration curve.

HL-60 cells [2] = test: Cell cycle analysis by flow cytometry (propidium iodide); format: cell-based, human; conditions: for cell cycle, G1, mean / cell cycle, G2/M, mean / cell cycle, S, mean: mean of n=2; for cell cycle distribution, G1 / cell cycle distribution, G2 / cell cycle distribution, G2/M: HL-60, 20 h, mean ± SD, n = 2
Experimental: The next stage examined the effects of the selected compounds on cell cycle progression in HL-60 leukemia cells. […] One million HL-60 (subline CCL 240; cell type: promyeloblast) cells in 3 mL of RPMI 1640 supplemented with 20% FBS were seeded on 6-well plate. […] Fixed cells were stored in −20 °C for 2–3 days. Before analysis, cells were centrifuged (10 min, 1500 rpm, 4 °C) and washed twice with cold PBS. After the second wash, the cells were suspended in 1mL of PBS containing 100 μg of RNase A and incubated in 37 °C for 10 min. Next, 5 μL of solution of propidium iodide (1 mg/mL) was added to each sample and incubated in dark for 30 min at RT. Stained cells were analyzed by flow cytometry (FACS Calibur, BD Biosciences, San Jose, CA, USA). Data from 10,000 gated cells were collected using CellQuestPro software (Ver 6.0, Becton Dickinson) and cell cycle analysis was performed with ModFit LT software (Ver 3.2, Verity Software House, Topsham, ME, USA).

NALM-6 cells [3] = tested on: NALM-6 cells; design: method as in PMID 30513785; conditions: MTT; cited from earlier work
WM-115 cells [4] = tested on: WM-115 cells; design: method as in PMID 30513785; conditions: MTT; cited from earlier work
HL-60 cells [5] = tested on: HL-60 cells; design: method as in PMID 30513785; conditions: MTT; cited from earlier work
HL-60 cells [6] = test: MTT cytotoxicity assay, HL-60; format: cell-based, human; conditions: for IC50: Homo sapiens, HL-60, 48 h, MTT, 46 h + 2 h incubation
Experimental: (§1) The first stage of the study used the MTT viability test to determine the cytotoxicity of ten compounds, i.e., 3-arylidenechromanone, 3-arylideneflavanone, spirochromanone and spiro- flavanone analogues, against four human cancer cell lines: HL-60, NALM-6, WM-115 and COLO-205.
(§2) Cytotoxicity was tested against human skin melanoma cells (WM-115, ECACC, Salisbury, UK), two human leukemia cell lines, viz. promyelocytic leukemia (HL-60) and lymphoblastic leukemia (NALM-6), and human colon adenocarcinoma cells (COLO-205). The cell lines COLO-205, WM-115 and HL-60 used in this work came from the ATCC American Type Culture Collection (Manassas, VA, USA), whereas the NALM-6 cell line was purchased from the German Collection of Microorganisms and Cell Cultures (Braunschweig, Germany). The leukaemia cells and colon adenocarcinoma were cultured in RPMI 1640 medium (Invitrogen, Grand Island, NY, USA) supplemented with 10% fetal bovine serum (FBS; Invitrogen) and gentamicin (25 µg/mL; KRKA, Novo Mesto, Slovenia). For melanoma WM-115 cells, Dulbecco’s minimal essential medium (DMEM; Invitrogen) was used. All cell lines were cultured at 37 °C in a humidified atmosphere of 5% CO2 in air.
(§3) For all experiments, the studied compounds were dissolved in DMSO (Sigma-Aldrich) and were further diluted in culture medium to obtain <0.1% DMSO concentration. In each experiment, controls with and without 0.1% DMSO were performed. The cytotoxicity of all compounds and of the reference compounds 4-chromanone and 3-benzylideneflavanone was determined by the MTT assay, i.e., 3-(4,5-dimethylthiazol-2-yl)-2,5-diphenyltetrazolium bromide (Sigma, St. Louis, MO, USA), which measures cellular dehydrogenase activity. Exponentially growing cells were seeded a day before the experiment onto a 96-well microplates (Nunc, Roskilde, Denmark) at a density up to 6–8 × 10^3 cells/well (depending on the cell line). Subsequently, various concentrations of the studied compounds freshly prepared in DMSO and diluted with complete culture medium were added. All compounds were tested for their cytotoxicity at a final concentration of 10^−7–10^−3 M. After 46 h of incubation with the studied compounds, the cells were treated with the MTT reagent and incubation was continued for another two hours. MTT – formazan crystals were dissolved in 20% sodium dodecyl sulphate (SDS, Sigma-Aldrich) and 50% DMF (Sigma-Aldrich) at pH 4.7; following this, absorbance was read at 570 nm on a multifunctional Victor ELISA-plate reader (Perkin Elmer, Turku, Finland). The IC50 values, i.e., the concentration of the test compound required to reduce the cell survival fraction to 50% of controls, were calculated from concentration-response curves and used as a measure of the sensitivity of the cells to a given treatment. As a control, cultured cells were grown in the absence of drugs. The data points represent the means of at least five to ten repeats ± standard deviation (S.D.).

[7] = tested on: red blood cells (RBC membrane integrity); test: Red blood cell lysis assay; format: cell-based; conditions: 2% RBC suspension, 37 °C, 1 h
Description: (§4) All synthesized compounds with potential biological activity have to be tested for blood compatibility since xenobiotics will react with blood cells upon administration. In this case, biocompatibility refers to the quantification of cellular and plasma components of the blood. The measurement of the integrity of RBC membrane is considered a simple and reliable method for estimating hemocompatibility.
(§5) The studies on biological material were approved by the Bioethics Committee of the Medical University of Lodz, Poland (RNN/109/16/KE). The blood samples were obtained from healthy donors at the Blood Donation Centre in Lodz. The procedure for plasma preparation for erythrotoxicity studies was described previously. The influence of synthesized compounds as well as two reference compounds flavanone and chromanone on RBC membrane integrity was performed by lysis assay which was conducted according to our previous protocol. Briefly, 2% RBC suspension in 0.9% NaCl was incubated at 37 °C for one hour with the tested compounds at various concentrations corresponding to their activity towards cancer cell lines or 0.9% NaCl (control). The samples were centrifuged at 3000 rpm for 10 min and the absorbance of the supernatant was measured at 550 nm. The results are presented as percentage of haemolysis where a sample containing 10 μL of 2.0% v/v Triton X-100 was regarded as a positive control contributing to 100% of haemolysis. A sample containing saline solution represented spontaneous haemolysis of RBCs (control). The studies were performed on four biological samples obtained from different blood donors (n = 4). The results are presented as mean ± standard deviation (SD). The coefficient of variability for the method was counted: W = 9.51%, n = 5.

[8] = Red blood cell lysis assay; format: cell-based; conditions: human, 2% red blood cell suspension, 2% RBC suspension, 37 °C, Triton X-100 = 100%, read-out: percentage of hemolysis
Description: as §4, §5

COLO-205 cells = test: MTT cytotoxicity assay, COLO-205; format: cell-based, human; conditions: Homo sapiens, COLO 205, 48 h, 46 h + 2 h incubation
Experimental: as §1, §2, §3

WM-115 cells [9] = test: MTT cytotoxicity assay, WM-115; format: cell-based, human; conditions: Homo sapiens, WM-115, 48 h, MTT, 46 h + 2 h incubation
Experimental: as §1, §2, §3

NALM-6 cells [10] = test: MTT cytotoxicity assay, NALM-6; format: cell-based, human; conditions: Homo sapiens, NALM-6, 48 h, MTT, 46 h + 2 h incubation
Experimental: as §1, §2, §3

erythrocytes = test: Red blood cell morphology (phase-contrast microscopy); format: cell-based; conditions: 2% erythrocyte suspension, 37 °C, 1 h, phase contrast 400×
Experimental: Studies on erythrocyte morphology complement the erythrotoxicity studies because they provide information on potential immediate interactions of the tested compounds with the erythrocyte lipid bilayer, and the possibility of creating pathological forms of erythrocytes, which are not able to carry oxygen. The effects of the synthesized compounds, and the two reference compounds chromanone and flavanone, on the morphology of erythrocytes is shown in Figure 6. Briefly, 2% RBC suspension was incubated with 0.9% NaCl (control samples) or tested compounds at various concentrations corresponding to their activity towards cancer cell lines.
A 2% erythrocyte suspension was incubated at 37 °C for one hour with various concentrations of synthesized compounds. The morphology of the RBCs was examined by means of a phase contrast Opta-Tech inverted microscope, at 400× magnification, equipped with software (OptaView 7) for image analysis.

[11] = Figure S3, HL-60, 0.5 × IC50 (µM: quercetin 29, 1 1.5, 7 18, 10 4.7, 11 4.5, 12 6)
[12] = Figure S3, HL-60, 0.5 × IC50, each of two repetitions
[13] = Figure S3, HL-60, 1 × IC50 (µM: quercetin 58, 1 3, 7 35, 10 9.4, 11 9, 12 12)
[14] = Figure S3, HL-60, 1 × IC50, each of two repetitions
[15] = 0.5 × IC50 (µM: quercetin 29, 2 1.5, 7 18, 12 6, 11 4.5, 10 4.7)
[16] = 1 × IC50 (µM: quercetin 58, 2 3, 7 35, 12 12, 11 9, 10 9.4)

CCN(CC)c1ccc(C=C2C(=O)c3ccccc3OC2c2ccccc2)cc1 (stereo not shown) [Compound 11, (E)-3-(4-N,N-diethylaminobenzylidene)-2-phenylchroman-4-one]
chromatographic logP [1]: 5.69
cell cycle, G1, mean (HL-60 cells [2]; [11]): 5,95%
cell cycle, G2/M, mean (HL-60 cells [2]; [11]): 59,23%
cell cycle, S, mean (HL-60 cells [2]; [11]): 34,83%
cell cycle, G1, single repetitions (HL-60 cells [2]; [12]): 3,45% and 8,45%
cell cycle, G2/M, single repetitions (HL-60 cells [2]; [12]): 64,13% and 54,32%
cell cycle, S, single repetitions (HL-60 cells [2]; [12]): 27,42% and 42,23%
cell cycle, G1, mean (HL-60 cells [2]; Figure S3, HL-60, 1 × IC50 (µM in parenthesis: quercetin 58, 1 3, 7 35, 10 9.4, 11 9, 12 12)): 3,17%
cell cycle, G2/M, mean (HL-60 cells [2]; [13]): 67,76%
cell cycle, S, mean (HL-60 cells [2]; [13]): 29,08%
cell cycle, G1, single repetitions (HL-60 cells [2]; [14]): 5,16% and 1,17%
cell cycle, G2/M, single repetitions (HL-60 cells [2]; [14]): 67,98% and 67,53%
cell cycle, S, single repetitions (HL-60 cells [2]; [14]): 26,86% and 31,30%
cell cycle distribution, G1 (HL-60 cells [2]; [15]): 3.2 ± 2.8%
cell cycle distribution, G2 (HL-60 cells [2]; [15]): 29.1 ± 3.1%
cell cycle distribution, G2/M (HL-60 cells [2]; [15]): 67.8 ± 0.3%
cell cycle distribution, G1 (HL-60 cells [2]; [16]): 6 ± 3.5%
cell cycle distribution, G2 (HL-60 cells [2]; [16]): 34.8 ± 10.5%
cell cycle distribution, G2/M (HL-60 cells [2]; [16]): 59.2 ± 6.9%
cells arrested in G2/M phase (HL-60 cells [2]; HL-60, concentrations of IC50 and 0.5 × IC50): 50–60%
IC50 (NALM-6 cells [3]): 9.08 ± 0.3 µM
IC50 (WM-115 cells [4]): 6.45 ± 0.69 µM
IC50 (HL-60 cells [5]): 8.36 ± 0.63 µM

COc1ccc(/C=C2\COc3ccccc3C2=O)cc1 [Compound 3, (E)-3-(4-methoxybenzylidene)chroman-4-one]
IC50 (HL-60 cells [6]): 45.4 ± 4.77 µM
chromatographic logP [1]: 4.08
effect on RBC hemolysis / erythrocyte membrane integrity (in words) [7]: significant disintegration of the erythrocyte membrane at concentrations above 25 µM
hemolysis at 1 h [8]: ≤ 5%
IC50 (COLO-205 cells): 193 ± 2.9 µM
IC50 (WM-115 cells [9]): 23.5 ± 1.71 µM
IC50 (NALM-6 cells [10]): 30.1 ± 3.15 µM
erythrocyte morphology (in words) (erythrocytes): echinocytes accounted for the major part of erythrocytes

COc1ccc(C2CN=NC23COc2ccccc2C3=O)cc1 (stereo not shown) [Compound 4, 4′-[(4-methoxy)phenyl]-4′,5′-dihydro-4H-spiro[chroman-3,3′-pirazol]-4-one]
IC50 (HL-60 cells [6]): 74 ± 1.85 µM
melting point: 109 to 111.3 °C
chromatographic logP [1]: 4.68
effect on RBC hemolysis / erythrocyte membrane integrity (in words) [7]: significant disintegration of the erythrocyte membrane at concentrations above 25 µM
hemolysis at 1 h [8]: ≤ 5%
IC50 (COLO-205 cells): 26.5 ± 1.8 µM
IC50 (WM-115 cells [9]): 75.3 ± 4.89 µM
IC50 (NALM-6 cells [10]): 72.6 ± 4.56 µM
erythrocyte morphology (in words) (erythrocytes): echinocytes accounted for the major part of erythrocytes

O=C1c2ccccc2OC(c2ccccc2)C12N=NCC2c1ccccc1 (stereo not shown) [Compound 6, 2′-phenylchromanone-3′-spiro-3,4-phenyl-1-pyrazoline]
fold lower cytotoxicity against HL-60 than compound 2 (HL-60 cells [6]; HL-60, compared with compound 2): more than 330 fold
IC50 (HL-60 cells [6]): > 1000 µM
melting point: 126.5 to 127 °C
chromatographic logP [1]: 5.88
IC50 (COLO-205 cells): 53.6 ± 1.6 µM
IC50 (WM-115 cells [9]): 57.4 ± 5.8 µM
IC50 (NALM-6 cells [10]): 44.4 ± 6.3 µM
erythrocyte morphology (in words) (erythrocytes): echinocytes accounted for the major part of erythrocytes

O=C1c2ccccc2OCC12N=NCC2c1ccccc1 (stereo not shown) [Compound 8, 4′-phenyl-4′,5′-dihydro-4H-spiro[chromano-3,3′-pirazol]-4-one]
IC50 (HL-60 cells [6]): 474 ± 29 µM
melting point: 141 to 142 °C
chromatographic logP [1]: 2.35
effect on RBC hemolysis / erythrocyte membrane integrity (in words) [7]: significantly greater disintegration of RBC membrane was reported at concentrations of 250 µM and 500 µM
IC50 (COLO-205 cells): > 1000 µM
IC50 (WM-115 cells [9]): 415 ± 75.4 µM
IC50 (NALM-6 cells [10]): 282 ± 49.4 µM
